ChEMBL document CHEMBL1201862, “PubChem BioAssay data set” (2004)
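Five compound concentrations were applied to cells in 96-well plates for 48 hours; endpoints were derived by simple linear interpolation of the resulting dose-response curve. GI50 marks 50% less growth.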 Calls of active or inactive are those of the source. Rule as the data show it: active = GI50 up to about 1.1 µM and inactive = higher.

Legend:
Assay in all cases: NCI-60 cell line screen, 48 h
HCT-116 = tested on: HCT-116
NCI-H522 = tested on: NCI-H522
786-0 = tested on: 786-0
HCT-15 = tested on: HCT-15
SF-295 = tested on: SF-295
HL-60 = tested on: HL-60
SNB-19 = tested on: SNB-19
KM12 = tested on: KM12
IGROV-1 = tested on: IGROV-1
SN12C = tested on: SN12C
DLD-1 = tested on: DLD-1
SF-268 = tested on: SF-268
K562 = tested on: K562
UO-31 = tested on: UO-31
U-251 = tested on: U-251
NCI-H460 = tested on: NCI-H460
OVCAR-3 = tested on: OVCAR-3
MOLT-4 = tested on: MOLT-4
RPMI-8226 = tested on: RPMI-8226

| SMILES | GI50 (HCT-116) | GI50 (NCI-H522) | GI50 (786-0) | GI50 (HCT-15) | GI50 (SF-295) | GI50 (HL-60) | GI50 (SNB-19) | GI50 (KM12) | GI50 (IGROV-1) | GI50 (SN12C) | GI50 (DLD-1) | GI50 (SF-268) | GI50 (K562) | GI50 (UO-31) | GI50 (U-251) | GI50 (NCI-H460) | GI50 (OVCAR-3) | GI50 (MOLT-4) | GI50 (RPMI-8226) |
| --- | --- | --- | --- | --- | --- | --- | --- | --- | --- | --- | --- | --- | --- | --- | --- | --- | --- | --- | --- |
| CN(C)CCNC(=O)c1cccc2ccc(-c3ccc(-c4ccccc4)cc3)nc12 | 1.72 µM (inactive) | 1.88 µM (inactive) | 1.79 µM (inactive) | 1.98 µM | 2.21 µM (inactive) | 1.93 µM (inactive) | 11.4 µM (inactive) | 2.09 µM (inactive) | 12.6 µM (inactive) | 6.59 µM (inactive) | 2.45 µM (inactive) | 3.37 µM (inactive) | 2.13 µM (inactive) | 11.7 µM (inactive) | 2.14 µM (inactive) | 1.61 µM (inactive) | 6.01 µM (inactive) | 1.91 µM (inactive) | – |
| O=C1C=CC=CC2CC=C[C@@H](O)C12 (stereo partly drawn) | 13.2 µM (inactive) | 13.7 µM (inactive) | 17.2 µM (inactive) | 17.3 µM | 20.7 µM (inactive) | 15.5 µM (inactive) | 22.9 µM (inactive) | 10.4 µM (inactive) | 39.6 µM (inactive) | 22.4 µM (inactive) | 25.1 µM (inactive) | 21.3 µM (inactive) | 26.5 µM (inactive) | 16.4 µM (inactive) | > 10 µM (inactive) | 18.4 µM (inactive) | > 10 µM (inactive) | 20.9 µM (inactive) | 3.41 µM (inactive) |
| C=Cc1cncc(C#N)c1CCc1c(C#N)cncc1C=C | > 10 µM (inactive) | > 10 µM (inactive) | > 10 µM (inactive) | > 10 µM | > 10 µM (inactive) | > 10 µM (inactive) | > 10 µM (inactive) | > 10 µM (inactive) | > 10 µM (inactive) | > 10 µM (inactive) | > 10 µM (inactive) | > 10 µM (inactive) | > 10 µM (inactive) | > 10 µM (inactive) | > 10 µM (inactive) | > 10 µM (inactive) | > 10 µM (inactive) | > 10 µM (inactive) | > 10 µM (inactive) |
| COc1cccc2c1[C@H]1OC(=O)NC1CCCCC2 (stereo partly drawn) | > 100 µM (inactive) | > 100 µM (inactive) | > 100 µM (inactive) | > 100 µM | > 100 µM (inactive) | > 100 µM (inactive) | > 100 µM (inactive) | > 100 µM (inactive) | > 100 µM (inactive) | > 100 µM (inactive) | > 100 µM (inactive) | > 100 µM (inactive) | > 100 µM (inactive) | > 100 µM (inactive) | > 100 µM (inactive) | > 100 µM (inactive) | > 100 µM (inactive) | > 100 µM (inactive) | > 100 µM (inactive) |
| CCN(CC)c1ccc(/N=C2/C=CC(=O)c3ncccc32)c(C)c1 | 2.47 µM (inactive) | – | 5.02 µM (inactive) | 3.08 µM | 10.7 µM (inactive) | 2.19 µM (inactive) | 16.1 µM (inactive) | 13.8 µM (inactive) | 6.65 µM (inactive) | 7.38 µM (inactive) | 3.42 µM (inactive) | 8.32 µM (inactive) | 2.45 µM (inactive) | 16.6 µM (inactive) | 6.92 µM (inactive) | 6.43 µM (inactive) | 3.33 µM (inactive) | 2 µM (inactive) | 2.93 µM (inactive) |
| COC(=O)NC(=O)c1cn(CCCOC(=O)CCCCCCCCC(=O)OCCCn2cc(C(=O)NC(=O)OC)c(=O)[nH]c2=O)c(=O)[nH]c1=O | > 100 µM (inactive) | – | 88.5 µM (inactive) | > 100 µM | 47.3 µM (inactive) | > 100 µM (inactive) | 42.4 µM (inactive) | > 100 µM (inactive) | 85.1 µM (inactive) | > 100 µM (inactive) | > 100 µM (inactive) | 31.3 µM (inactive) | > 100 µM (inactive) | > 100 µM (inactive) | – | > 100 µM (inactive) | > 100 µM (inactive) | > 100 µM (inactive) | > 100 µM (inactive) |
| CN(C(=O)C12C3C4C1C1C2C3C41C(O)C(C)(C)C)C(C)(C)C (stereo not drawn) | > 100 µM (inactive) | 58.2 µM (inactive) | > 100 µM (inactive) | – | > 100 µM (inactive) | > 100 µM (inactive) | > 100 µM (inactive) | > 100 µM (inactive) | > 100 µM (inactive) | > 100 µM (inactive) | > 100 µM (inactive) | > 100 µM (inactive) | > 100 µM (inactive) | > 100 µM (inactive) | > 100 µM (inactive) | > 100 µM (inactive) | > 100 µM (inactive) | > 100 µM (inactive) | > 100 µM (inactive) |
| CCOC(=O)NC(=O)c1cn(CCCO)c(=O)[nH]c1=O | > 100 µM (inactive) | – | > 100 µM (inactive) | > 100 µM | > 100 µM (inactive) | – | > 100 µM (inactive) | > 100 µM (inactive) | > 100 µM (inactive) | > 100 µM (inactive) | > 100 µM (inactive) | > 100 µM (inactive) | > 100 µM (inactive) | > 100 µM (inactive) | > 100 µM (inactive) | > 100 µM (inactive) | > 100 µM (inactive) | > 100 µM (inactive) | > 100 µM (inactive) |
| CN(C)CCNC(=O)c1cccc2c(Nc3ccc(S(=O)(=O)N=C(N)N)cc3)c3ccccc3nc12 | 25.8 µM (inactive) | 3.97 µM (inactive) | 18 µM (inactive) | 99.1 µM | 17.3 µM (inactive) | 0.684 µM (active) | 3.37 µM (inactive) | 31.3 µM (inactive) | 7.1 µM (inactive) | 5.15 µM (inactive) | 69.8 µM (inactive) | 7.24 µM (inactive) | 11.9 µM (inactive) | 10 µM (inactive) | 8.36 µM (inactive) | 3.17 µM (inactive) | – | 2.03 µM (inactive) | – |
| CN(C)CC1CCCC(CN(C)C)C1=NOC(=O)c1ccccc1 (stereo not drawn) | > 100 µM (inactive) | > 100 µM (inactive) | > 100 µM (inactive) | > 100 µM | > 100 µM (inactive) | > 100 µM (inactive) | > 100 µM (inactive) | > 100 µM (inactive) | > 100 µM (inactive) | > 100 µM (inactive) | > 100 µM (inactive) | > 100 µM (inactive) | > 100 µM (inactive) | > 100 µM (inactive) | > 100 µM (inactive) | > 100 µM (inactive) | > 100 µM (inactive) | > 100 µM (inactive) | > 100 µM (inactive) |
| COC(=O)C(=O)CC(=O)CCn1ncc(Cl)c(Cl)c1=O | 15.1 µM (inactive) | 0.57 µM (active) | 21.7 µM (inactive) | 4.14 µM | 13.7 µM (inactive) | 3.94 µM (inactive) | 18.5 µM (inactive) | 25.9 µM (inactive) | 17.1 µM (inactive) | 16.9 µM (inactive) | 10.3 µM (inactive) | 11.3 µM (inactive) | 3.56 µM (inactive) | 18.1 µM (inactive) | 9.23 µM (inactive) | 19.7 µM (inactive) | 12.8 µM (inactive) | 6.19 µM (inactive) | 12.8 µM (inactive) |
| CN(C)c1[se]nc2c1c(=O)n(C)c(=O)n2C | > 100 µM (inactive) | > 100 µM (inactive) | > 100 µM (inactive) | > 100 µM | > 100 µM (inactive) | > 100 µM (inactive) | > 100 µM (inactive) | > 100 µM (inactive) | > 100 µM (inactive) | > 100 µM (inactive) | > 100 µM (inactive) | > 100 µM (inactive) | > 100 µM (inactive) | > 100 µM (inactive) | > 100 µM (inactive) | > 100 µM (inactive) | > 100 µM (inactive) | > 100 µM (inactive) | > 100 µM (inactive) |
| CC1CCP(=O)(c2ccccc2)CC1 (stereo not drawn) | – | – | > 100 µM (inactive) | > 100 µM | > 100 µM (inactive) | > 100 µM (inactive) | > 100 µM (inactive) | > 100 µM (inactive) | > 100 µM (inactive) | > 100 µM (inactive) | > 100 µM (inactive) | > 100 µM (inactive) | > 100 µM (inactive) | > 100 µM (inactive) | > 100 µM (inactive) | > 100 µM (inactive) | > 100 µM (inactive) | > 100 µM (inactive) | > 100 µM (inactive) |
| O=C1Nc2ccccc2/C1=N/NC(=O)c1ccccc1O | 36.8 µM (inactive) | 39.7 µM (inactive) | 53.3 µM (inactive) | 32.6 µM | 27.9 µM (inactive) | 27.7 µM (inactive) | 62.2 µM (inactive) | 33.7 µM (inactive) | – | 35.2 µM (inactive) | 29.3 µM (inactive) | 44.4 µM (inactive) | 40.9 µM (inactive) | 28.2 µM (inactive) | 23.2 µM (inactive) | 34.8 µM (inactive) | 85.3 µM (inactive) | 29 µM (inactive) | 56.5 µM (inactive) |
| CCOC(=O)N1C(=O)C2C3C=CC(C2C1=O)C1C2C(=O)N(C(=O)OCC)C(=O)C2C31 (stereo not drawn) | > 39.5 µM (inactive) | > 100 µM (inactive) | > 83 µM (inactive) | > 47.2 µM | > 100 µM (inactive) | 20.3 µM (inactive) | > 100 µM (inactive) | > 100 µM (inactive) | > 100 µM (inactive) | > 100 µM (inactive) | > 87.3 µM (inactive) | > 81.3 µM (inactive) | > 100 µM (inactive) | > 100 µM (inactive) | > 68.1 µM (inactive) | > 42.7 µM (inactive) | > 100 µM (inactive) | > 100 µM (inactive) | > 100 µM (inactive) |
